Measurements as given in ChEMBL document CHEMBL1201862, “PubChem BioAssay data set” (2004).
The source made the active and inactive calls.

Columns and labels:
[1] = target: Dual specificity protein phosphatase 6 (Rattus norvegicus, UniProt Q64346); test: MKP-3 phosphatase inhibitors, primary screen, biochemical, rat enzyme, in vitro (AID 425)
[2] = Luminescence Cell-Based Dose-Confimation HTS to Identify Inhibitors of 5'UTR Stem-Loop Driven Alpha-Synuclein mRNA Translation in H4 Neuroglioblastoma Cells. [Related pubchem assays: 1827 (Project Summary), 1813 (Primary HTS)]; format: functional
Cytochrome P450 3A4 = Cytochrome P450 3A4 (Homo sapiens, UniProt P08684); conditions: Potency;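 also: confirmatory qHTS run detecting inhibitors and substrates of CYP3A4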
Cytochrome P450 2C19 = Cytochrome P450 2C19 (Homo sapiens, UniProt P33261); test: qHTS Assay for Inhibitors and Substrates of Cytochrome P450 2C19. [Related pubchem assays: 410 ]; format: ADME; conditions: read-out: Potency
[3] = target: Sphingosine 1-phosphate receptor 2 (Homo sapiens, UniProt O95136); test: Dose Response Cell Based Assay for Agonists of the S1P2 Receptor of Purchased Analogues. [Related pubchem assays: 729, 843, 854, 736 ]; format: functional
Bcl-2-related protein A1 [4] = target: T1, Bcl-2-related protein A1 (Mus musculus, UniProt Q07440); test: Bfl-1 binding inhibitors, SAR follow-up, biochemical, fluorescence polarization (AID 1070)
T1 sequence (Q07440 whole entry): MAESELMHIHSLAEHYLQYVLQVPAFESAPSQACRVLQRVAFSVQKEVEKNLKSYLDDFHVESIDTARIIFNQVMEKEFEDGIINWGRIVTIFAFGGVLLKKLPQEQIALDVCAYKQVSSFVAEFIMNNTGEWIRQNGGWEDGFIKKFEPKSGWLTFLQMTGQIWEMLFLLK

Bcl-2-related protein A1 [5] = target: T1, Bcl-2-related protein A1; test: Bfl-1 inhibitors blocking BH3 peptide binding, confirmation, biochemical, TR-FRET, mouse Bfl-1 (AID 621);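 also: TR-FRET binding of GST-Bfl-1 to FITC-labelled Bid peptide via terbium antibody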
[6] = target: Glyceraldehyde-3-phosphate dehydrogenase (Homo sapiens, UniProt P04406)
[7] = target: Serine/threonine-protein phosphatase (Homo sapiens, UniProt Q9BPW0); test: PP5 phosphatase inhibitors, dose response, biochemical, fluorescence (AID 2395)
[8] = target: Serine/threonine-protein phosphatase PP1-alpha catalytic subunit (Homo sapiens, UniProt P62136); test: PP1 phosphatase inhibitors, dose response, biochemical, fluorescence (AID 2394)
Sequence of Serine/threonine-protein phosphatase PP1-alpha catalytic subunit (P62136 whole entry): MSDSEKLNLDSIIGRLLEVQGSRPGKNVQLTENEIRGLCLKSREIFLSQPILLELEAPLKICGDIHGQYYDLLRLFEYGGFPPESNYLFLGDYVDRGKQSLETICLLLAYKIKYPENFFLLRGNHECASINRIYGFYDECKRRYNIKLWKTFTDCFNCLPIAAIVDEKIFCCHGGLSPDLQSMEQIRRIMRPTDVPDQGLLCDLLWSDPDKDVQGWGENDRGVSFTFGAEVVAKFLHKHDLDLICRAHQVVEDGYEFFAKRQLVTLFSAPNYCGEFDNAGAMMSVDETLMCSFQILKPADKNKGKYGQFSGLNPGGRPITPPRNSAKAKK

Sequence of Dual specificity protein phosphatase 6 (Q64346 whole entry): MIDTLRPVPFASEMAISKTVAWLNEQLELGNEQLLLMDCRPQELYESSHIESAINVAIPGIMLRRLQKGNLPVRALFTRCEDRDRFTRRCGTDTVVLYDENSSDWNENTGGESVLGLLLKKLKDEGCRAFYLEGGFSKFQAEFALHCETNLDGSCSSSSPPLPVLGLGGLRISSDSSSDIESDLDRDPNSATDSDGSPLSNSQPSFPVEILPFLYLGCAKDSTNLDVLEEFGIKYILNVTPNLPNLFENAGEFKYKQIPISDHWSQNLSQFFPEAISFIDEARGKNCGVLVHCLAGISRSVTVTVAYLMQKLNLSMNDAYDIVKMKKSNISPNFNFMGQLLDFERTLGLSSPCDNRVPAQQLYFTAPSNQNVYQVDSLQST
Sequence of Serine/threonine-protein phosphatase (Q9BPW0 whole entry): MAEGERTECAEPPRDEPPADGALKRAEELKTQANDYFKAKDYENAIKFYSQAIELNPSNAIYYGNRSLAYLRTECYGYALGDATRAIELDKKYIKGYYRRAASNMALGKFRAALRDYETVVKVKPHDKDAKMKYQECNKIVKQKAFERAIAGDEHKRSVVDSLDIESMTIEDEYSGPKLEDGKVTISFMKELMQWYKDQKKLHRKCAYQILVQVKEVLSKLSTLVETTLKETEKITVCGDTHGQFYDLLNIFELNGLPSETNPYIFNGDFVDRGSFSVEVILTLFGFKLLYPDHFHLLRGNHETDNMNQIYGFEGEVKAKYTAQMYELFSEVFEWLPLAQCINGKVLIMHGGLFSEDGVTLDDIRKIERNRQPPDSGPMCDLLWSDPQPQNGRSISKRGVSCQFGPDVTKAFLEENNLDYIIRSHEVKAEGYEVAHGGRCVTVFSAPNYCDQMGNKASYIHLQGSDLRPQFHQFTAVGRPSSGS
Sequence of Cytochrome P450 2C19 (P33261 whole entry): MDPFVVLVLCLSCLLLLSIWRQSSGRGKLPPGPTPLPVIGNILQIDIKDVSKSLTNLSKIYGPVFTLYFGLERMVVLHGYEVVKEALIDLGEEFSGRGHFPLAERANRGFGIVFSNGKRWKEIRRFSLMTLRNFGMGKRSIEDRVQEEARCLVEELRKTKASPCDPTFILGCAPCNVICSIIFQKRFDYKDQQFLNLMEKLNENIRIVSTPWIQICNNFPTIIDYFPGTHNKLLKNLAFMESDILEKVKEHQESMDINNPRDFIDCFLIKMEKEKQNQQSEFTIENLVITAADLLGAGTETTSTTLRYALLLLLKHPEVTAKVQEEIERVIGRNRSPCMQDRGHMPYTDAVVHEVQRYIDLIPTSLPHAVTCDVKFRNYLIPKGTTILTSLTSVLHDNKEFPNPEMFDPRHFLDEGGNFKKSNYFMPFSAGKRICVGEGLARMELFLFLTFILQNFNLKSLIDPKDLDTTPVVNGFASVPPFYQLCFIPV
Sequence of Sphingosine 1-phosphate receptor 2 (O95136 whole entry): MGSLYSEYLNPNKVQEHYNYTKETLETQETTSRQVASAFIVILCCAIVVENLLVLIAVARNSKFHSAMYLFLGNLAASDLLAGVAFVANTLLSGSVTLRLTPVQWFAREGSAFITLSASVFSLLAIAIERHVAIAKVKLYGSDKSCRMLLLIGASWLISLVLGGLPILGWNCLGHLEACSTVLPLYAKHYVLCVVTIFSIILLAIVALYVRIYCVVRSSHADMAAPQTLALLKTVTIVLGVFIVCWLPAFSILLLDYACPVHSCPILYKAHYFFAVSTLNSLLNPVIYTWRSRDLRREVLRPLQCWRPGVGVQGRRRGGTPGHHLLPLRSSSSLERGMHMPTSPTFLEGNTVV
Sequence of Glyceraldehyde-3-phosphate dehydrogenase (P04406 whole entry): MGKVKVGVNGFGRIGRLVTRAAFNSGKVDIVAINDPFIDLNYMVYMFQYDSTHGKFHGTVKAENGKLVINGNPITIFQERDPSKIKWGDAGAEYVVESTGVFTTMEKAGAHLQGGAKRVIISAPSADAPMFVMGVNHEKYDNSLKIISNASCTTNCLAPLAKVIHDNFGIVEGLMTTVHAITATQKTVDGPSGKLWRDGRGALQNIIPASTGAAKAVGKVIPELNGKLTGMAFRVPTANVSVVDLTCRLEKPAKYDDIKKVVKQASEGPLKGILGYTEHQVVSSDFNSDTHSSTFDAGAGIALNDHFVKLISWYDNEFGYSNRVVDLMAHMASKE
Sequence of Cytochrome P450 3A4 (P08684 whole entry): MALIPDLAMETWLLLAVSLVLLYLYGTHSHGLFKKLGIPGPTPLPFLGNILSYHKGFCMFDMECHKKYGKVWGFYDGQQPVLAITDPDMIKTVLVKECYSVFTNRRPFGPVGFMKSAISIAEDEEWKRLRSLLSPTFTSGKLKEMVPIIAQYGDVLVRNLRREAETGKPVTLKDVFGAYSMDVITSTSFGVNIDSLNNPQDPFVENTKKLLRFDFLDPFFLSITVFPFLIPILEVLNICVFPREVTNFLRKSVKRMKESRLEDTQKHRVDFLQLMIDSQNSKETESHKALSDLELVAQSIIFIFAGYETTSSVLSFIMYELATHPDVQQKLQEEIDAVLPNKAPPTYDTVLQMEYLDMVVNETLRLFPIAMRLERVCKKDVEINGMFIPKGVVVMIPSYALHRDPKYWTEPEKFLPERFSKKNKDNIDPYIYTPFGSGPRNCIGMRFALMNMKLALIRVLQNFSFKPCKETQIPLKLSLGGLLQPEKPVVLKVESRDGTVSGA

Structure (SMILES): CCOC(=O)c1cc2sccc2n1Cc1ccccc1
- IC50 [1]: > 100 µM (not active)

Structure (SMILES): CC(C)c1ccc(-n2nnnc2SCc2nc(N)nc(N)n2)cc1
- EC50 [2]: > 100 µM (not active)

Structure (SMILES): COC(=O)NC(c1ccccc1)C(C(=O)OC)C(=O)OC (stereo not given)
- AC50 (Cytochrome P450 3A4): 3.16 µM (inconclusive)
- AC50 (Cytochrome P450 2C19): 5.01 µM (inconclusive)

Structure (SMILES): Cc1cc(C(=O)COC(=O)CCS(=O)(=O)c2ccccc2)c(C)n1Cc1ccccc1
- EC50 [3]: > 30 µM (not active)

Structure (SMILES): O=C1C(Cl)=C(N2CCN(c3ccccc3)CC2)C(=O)N1c1ccc(Cl)c(Cl)c1
- IC50 (Bcl-2-related protein A1 [4]): 4.95 µM (active)
- IC50 (Bcl-2-related protein A1 [5]): 4.13 µM (active)
- IC50 [6]: > 100 µM (not active)

Structure (SMILES): COC(=O)CCC(=O)OC1(C)C(=O)C=C2C=C(C3CC3)N(CC3CC3)C=C2C1=O (stereo not given)
- IC50 [7]: 17 µM (not active)
- IC50 [8]: 63.6 µM (not active)
